From a compilation of properties of binary mixtures (doi:10.1016/j.molliq.2012.02.014)

Assay: xn = mol fraction of the nth substance listed
Conditions: 101 kPa

CN(CCO)CCO + CCCCCC[n+]1ccn(C)c1.O=S(=O)([N-]S(=O)(=O)C(F)(F)F)C(F)(F)F
x1 = 1
Conditions	viscosity [mPa·s]
308.15 K	46.2
323.15 K	24.7

CCCCCC[n+]1ccn(C)c1.O=S(=O)([N-]S(=O)(=O)C(F)(F)F)C(F)(F)F + CN(CCO)CCO
viscosity [mPa·s]
Conditions	x2 = 0	x2 = 0.0989	x2 = 0.1899	x2 = 0.2977	x2 = 0.3999	x2 = 0.4988	x2 = 0.6075	x2 = 0.7049	x2 = 0.801	x2 = 0.899
303.15 K	–	52.4	46.6	40.8	37	35.1	39	44.3	–	55.1
308.15 K	50.4	–	42.1	38	–	31.3	33.7	37.4	40.8	43.7
313.15 K	41.4	39.2	36.7	34	–	29.8	–	31.8	34.3	–
318.15 K	35	33.1	30.8	27.9	25.4	23.9	23.8	–	27.3	28.9
323.15 K	28.8	27.7	26	–	22.8	22.1	22.4	–	23.7	24.4
